In test [1] the test system is Rho-GTPases (Rho-A, Rho-C), protein elongation mechanism. Kind of test: Proteomics analysis. In kind it is cell-based. Particulars: data not shown.
The next test relates to MDAMB231 cells. Kind of test: Lactate dehydrogenase (LDH) release. In kind it is cell-based. As to conditions: MDAMB231, 24, 48 and 72 h. On the procedure:
The lactate dehydrogenase (LDH) is a cytosolic enzyme present in most mammalian cells.
For LDH release protocol, after treatments were performed for the MTT protocol, 20 µL of the supernatant of each well was transferred to an EIA/RIA plate. Then, 20 µL/well of the Reaction Mixture from the CyQUANT™ LDH Cytotoxicity Assay kit and reaction was incubated at RT for 30 minutes in the dark. Then, 60 µL/well of the Stop Solution from the kit was added and plate was read in a spectrophotometer at both 490 nm and 650 nm.
The calculation of LDH release was performed as follows: • 1. The absorbance measured at 650 nm was subtracted from the absorbance measured at 490 nm. • 2. This formula was applied: […]
O.D.: optical density captured by spectrophotometer NOTE: The Basal O.D. is the one found in the blank wells (only reaction mixture and stop solution).
(§1) In order to determine the effects of the peptide in LDH release, autophagy induction and apoptosis/necrosis profile of MDAMB231 cell line, the Analysis of Variance (ANOVA) with Dunnet and Bonferroni post-hoc tests were applied to the significance of 5% in GraphPad Prism software version 6.0.

Another test relates to MDAMB231 cell line. Briefly: Apoptosis/necrosis flow cytometry (Annexin V-FITC / propidium iodide). The format is cell-based.
Excerpt: Annexin V is a potent marker for apoptosis since it binds to the phosphatidylserine of the cell membrane. This binding only occurs when the phosphatidylserine is externalized in the membrane, which is one of the first signals of apoptosis death. Meanwhile propidium iodide only enters the cells after a membrane rupture and can indicate a final step to cell death. The double labeling with these markers allows to distinguish apoptosis and necrosis death through the following characterization: • Annexin V^- / Pl^-: live cells • Annexin V^+ / Pl^-: cells in early apoptosis • Annexin V^+ / Pl^+: cell in late apoptosis • Annexin V^- / Pl^+: cells in necrosis
For Apoptosis/ Necrosis protocol, cells were plated 6-well sterile plates for cell culture with a cap at the density of 2.5 × 10^5 cells/well for treatments lasting 24 h or more, completing the volume with 1000 µL culture medium. The plates were incubated for 8-16 h in an incubator at 37° C. and 5% CO2. The next day, the treatments were prepared in culture medium, applying 2000 µL/well at the desired concentration, and the plate was placed in an incubator at 37° C. and 5% CO2 for the duration of treatment. After the treatment period, cells were collected in a conic 15 mL tube and washed with 200 µL of binding buffer (1×) from the FITC Annexin V Apoptosis Detection Kit I. Cells were resuspended in 100 µL/tube of binding buffer (1×) and 1 µL of Annexin V-FITC was added to each tube except the blank. Cells were then incubated for 20 min. in ice and in the dark. Then, 50 µL/tube of binding buffer was added and cells were labeled with 2 µL of Propidium Iodide (PI) at 100 µg/mL and read at the flow cytometer for size and fluorescent content (FITC and PI).
as §1

For test [2], the system named is NFKB, Caspases (Caspase 9). Kind of test: Western blot protein expression. In kind it is cell-based. Particulars: compared to the negative control.
In test [3] the test system is MDA-MB-231 cells implanted in zebrafish larvae. Briefly: Zebrafish xenograft model of MDAMB231 (primary tumor and metastasis). In kind it is in vivo. The protocol:
Transgenic Tg(fli1:EGFP)y1 zebrafish embryos were raised at 28° C. for 48 hours in E3 embryo medium 0.2 mM 1-Phenyl-2-Thiourea aka PTU. […] MDA-MB-231 cells were labeled with Dil red fluorescent dye. Approximately 700 Dil Labeled cancer cells were subcutaneously co-implanted into the perivitelline space of 2 days old larvae ± 3-NantC peptide at […]. Larvae in which tumor cells had been inadvertently injected into circulation or larvae with erroneous implantation of the tumor in the yolk rather than the perivitelline space were excluded from the study. Selected tumor bearing embryos were sorted into experimental groups (20 embryos/group), and pictures of primary tumors were taken right after injection. Doxorubicin treatment was added to embryo water at 2.5 µg/mL according to the study plan. Tumor-bearing embryos were incubated in E3/PTU medium for 72 h at 36° C. After incubation, pictures of the primary tumors and the CVP were taken using a red fluorescent filter. Larvae that died or were lost by other means during the study were excluded from the final analysis.
Images obtained right after implantation (day 0) and after 72 h incubation (day 3) were analyzed by using in-house developed software. Tumor growth regression was calculated and normalized to the negative control group. The number of metastasized cells was counted manually. One-way ANOVA was performed followed by two-tailed Student’s t-test. Definitive outliers were detected using the ROUT method with a Q=1%. Graphs and example images, and experimental data were obtained/analyzed by using GraphPad Prism v9.0.2.

As to `CSCC[C@H](N)C(=O)N[C@@H](Cc1ccccc1)C(=O)N[C@@H](Cc1ccc(O)cc1)C(=O)N1CCC[C@H]1C(=O)N[C@@H](CC(=O)O)C(=O)N[C@@H](CO)C(=O)N[C@@H](CCCNC(=N)N)C(=O)N[C@@H](CS)C(=O)N[C@@H](CCCNC(=N)N)C(=O)NCC(=O)N1CCC[C@H]1C(=O)N[C@@H](CO)C(=O)N[C@@H](CCC(=O)O)C(=O)N[C@H](C(=O)O)[C@@H](C)O` [3-NAntC, [H]-MFYPDSRCRGPSET-[OH]], the “Rho-GTPases expression (e.g. Rho-A and Rho-C)” value in test [1] was “diminished”. Also, the protein elongation mechanism entry in test [1] is listed as “continuously disabling”. The LDH release result with MDAMB231 cells is recorded as “does not show any significant increase”. The “percentage of cells in necrosis” value in the test on MDAMB231 cell line (MDAMB231, 24 and 48 h, 0.8 µg/mL) was “maintaining the percentage of cells in necrosis”. Besides, the “increase of apoptosis rate” value was “about 20%” with MDAMB231 cell line (MDAMB231, 24 h, 0.8 µg/mL); “about 20%” with MDAMB231 cell line (MDAMB231, 48 h, 0.8 µg/mL); 28.73% with MDAMB231 cell line (MDAMB231, 72 h, highest dosage). In addition, the “activation of Caspases, namely Caspase 9” value in test [2] is “greater activation”. Also, the “activation of pro-survival signals such as NFKB” value in test [2] is given as “may inhibit the activation”. Also, in test [3] (75 and 125 mg/mL), the “decrease of metastatic cells” value is “about 60%”. Moreover, the “decrease of tumor cells (primary tumor)” value in test [3] (72 h, 3-NantC co-implanted at 75, 100 or 125 mg/mL, Doxorubicin 2.5 µg/mL in embryo water) amounted to 75%. Further, the “decrease in metastatic cells” value in test [3] (very low concentrations (FIG. 17)) is reported as “about 40%”.

The record behind these values is patent US20230364204A1, “Bioactive Peptides, Compositions, Production Process, and Use of Bioactive Peptides as Anti-Tumoral Agents” (priority 2022, published 2023).
